# Measurements published in ChEMBL document CHEMBL1129386, “Synthesis and immunostimulating properties of lipophilic ester and ether muramyl peptide derivatives” (J Med Chem, 1996).
# System: RAW264.7
# Experiment: Concentration of compound which increased the nitrite production in RAW 264.7 mouse monocyte-macrophage line
# Type: functional, cell-based
structure (smiles),measurement,value
CC(=O)N[C@@H]1[C@@H](OC(C)C(=O)N[C@@H](C)C(=O)N[C@H](CCC(=O)N[C@@H](C)C(=O)O[C@H]2CC[C@@]3(C)C(=CC[C@H]4[C@@H]5CC[C@H]([C@H](C)CCCC(C)C)[C@@]5(C)CC[C@@H]43)C2)C(N)=O)[C@H](O)[C@@H](CO)O[C@@H]1O (stereo partly specified),Concentration,1 µM
